Measured values taken from ChEMBL document CHEMBL5625251, “Anti-influenza virus activities and mechanism of antrafenine analogs” (Eur J Med Chem, 2023).
Active and inactive are the calls of the source. No cut-off for these calls is given here.

What was measured:
Influenza A virus [1] = assay: Antiviral activity against Influenza A virus A/WSN/33(H1N1) infected in MDCK cells assessed as inhibition of viral growth 12.5 uM pre-infected for 1 hr followed by compound addition and measured 24 hrs post infection by plaque assay relative to control; type: functional; details: time 23 hrs
[2] = Cytotoxicity against MDCK cells assessed as reduction in cell viability incubated for 48 hrs by MTT assay; type: toxicity, cell-based, Canis lupus familiaris; details: dog
Influenza A virus [3] = assay: Antiviral activity against Influenza A virus A/WSN/33(H1N1) infected in MDCK cells assessed as reduction in virus-induced cytopathic effect at 100 uM pre-infected with cells for 1 hrs followed by compound addition and measured after 2 days by MTT assay; type: functional, organism-based; details: time 2.0 day
MDCK = assay: Cytotoxicity against MDCK cells assessed as reduction in cell viability at 12.5 uM incubated for 48 hrs by MTT assay; type: toxicity, cell-based, Canis lupus familiaris; details: dog
Influenza A virus [4] = assay: Antiviral activity against Influenza A virus A/WSN/33(H1N1) infected in MDCK cells assessed as inhibition of viral growth at 50 uM pre-infected for 1 hr followed by compound addition and measured 24 hrs post infection by plaque assay relative to control; type: functional; details: time 23 hrs
Influenza A virus [5] = assay: Antiviral activity against Influenza A virus A/WSN/33(H1N1) infected in MDCK cells assessed as inhibition of viral growth at 100 uM pre-infected for 1 hr followed by compound addition and measured 24 hrs post infection by plaque assay relative to control; type: functional; details: time 23 hrs
Influenza A virus [6] = assay: Antiviral activity against Influenza A virus A/WSN/33(H1N1) infected in MDCK cells assessed as inhibition of viral growth at 6.25 uM pre-infected for 1 hr followed by compound addition and measured 24 hrs post infection by plaque assay relative to control; type: functional; details: time 23 hrs
[7] = Selectivity index, ratio of CC50 for cytotoxicity against MDCK cells assessed as reduction in cell viability to IC50 for antiviral activity against Influenza A virus B/Florida/4/06 infected in MDCK cells MOI 0.01 assessed as inhibition of viral growth; type: toxicity, cell-based; details: dog, read-out: Ratio CC50/IC50
Influenza A virus [8] = assay: Antiviral activity against Influenza A virus A/WSN/33(H1N1) infected in MDCK cells MOI 0.1 assessed as reduction in viral titre at 100 uM pre-infected with cells for 6 hrs followed by compound addition and measured after 6 to 8 hrs post infection by time of addition assay; type: functional, organism-based
[9] = Cytotoxicity against African green monkey Vero cells assessed as reduction in cell viability incubated for 48 hrs by MTT assay; type: toxicity, cell-based; details: chlorocebus sabaeus
[10] = Selectivity index, ratio of CC50 for cytotoxicity against MDCK cells assessed as reduction in cell viability to IC50 for antiviral activity against Influenza A virus A/WSN/33(H1N1) infected in MDCK cells assessed as inhibition of viral growth; type: toxicity, cell-based; details: dog, read-out: Ratio CC50/IC50
Influenza A virus [11] = assay: Antiviral activity against Influenza A virus A/WSN/33(H1N1) infected in chicken erythrocytes assessed as reduction in Haemagglutinin level preincubated for 30 mins followed by viral infection and measured after 40 mins; type: functional, organism-based; details: Erythrocyte, time 70.0 min
Influenza A virus [12] = assay: Antiviral activity against Influenza A virus A/PR/8/34 infected in MDCK cells MOI 0.01 assessed as inhibition of viral growth pre-infected for 1 hr followed by compound addition and measured 24 hrs post infection by plaque assay; type: functional, organism-based; details: A/PR/8/34, MDCK
[13] = Selectivity index, ratio of CC50 for cytotoxicity against MDCK cells assessed as reduction in cell viability to IC50 for antiviral activity against Influenza A virus A/PR/8/34 infected in MDCK cells MOI 0.01 assessed as inhibition of viral growth; type: toxicity, cell-based; details: dog, read-out: Ratio CC50/IC50
[14] = Selectivity index, ratio of CC50 for cytotoxicity against African green monkey Vero cells assessed as reduction in cell viability to IC50 for inhibition of Influenza A virus A/WSN/33(H1N1) Ribonucleoprotein transfected in Vero cells; type: toxicity, cell-based; details: read-out: Ratio CC50/IC50
[15] = Selectivity index, ratio of CC50 for cytotoxicity against MDCK cells assessed as reduction in cell viability to IC50 for antiviral activity against Influenza A virus A/HK/1/68 infected in MDCK cells MOI 0.01 assessed as inhibition of viral growth; type: toxicity, cell-based; details: dog, read-out: Ratio CC50/IC50
Influenza A virus [16] = assay: Antiviral activity against Influenza A virus A/WSN/33(H1N1) infected in MDCK cells MOI 0.1 assessed as reduction in viral titre at 100 uM pre-infected with cells for 6 hrs followed by compound addition and measured after 2 to 4 hrs post infection by time of addition assay; type: functional, organism-based
Nucleoprotein = Nucleoprotein (Influenza A virus (strain A/Wilson-Smith/1933 H1N1), UniProt P15682); assay: Binding affinity to Influenza A virus Nucleoprotein assessed as dissociation constant by MST assay
Nucleoprotein, sequence (P15682 whole entry): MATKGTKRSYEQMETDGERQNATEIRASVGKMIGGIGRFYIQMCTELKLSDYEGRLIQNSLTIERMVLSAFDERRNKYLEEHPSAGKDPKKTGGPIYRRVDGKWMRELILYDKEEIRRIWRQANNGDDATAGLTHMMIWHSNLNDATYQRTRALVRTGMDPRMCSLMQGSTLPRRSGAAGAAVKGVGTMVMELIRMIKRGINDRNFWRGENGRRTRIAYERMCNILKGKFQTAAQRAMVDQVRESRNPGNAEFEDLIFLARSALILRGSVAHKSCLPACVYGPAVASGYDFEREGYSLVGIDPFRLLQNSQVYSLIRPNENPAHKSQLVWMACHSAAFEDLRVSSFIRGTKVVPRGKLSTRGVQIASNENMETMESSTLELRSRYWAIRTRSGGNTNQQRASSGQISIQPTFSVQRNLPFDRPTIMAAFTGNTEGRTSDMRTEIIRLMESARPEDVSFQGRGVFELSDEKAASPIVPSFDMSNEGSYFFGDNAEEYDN

Influenza A virus [17] = assay: Antiviral activity against Influenza A virus A/HK/1/68 infected in MDCK cells MOI 0.01 assessed as inhibition of viral growth pre-infected for 1 hr followed by compound addition and measured 24 hrs post infection by plaque assay; type: functional, organism-based; details: A/HK/1/68, MDCK
[18] = molecular target: Polymerase acidic protein (Influenza A virus (A/Puerto Rico/8/1934(H1N1)), UniProt P03433); assay: Binding affinity to C-terminal Influenza A virus Polymerase acidic protein assessed as dissociation constant by MST assay
Influenza A virus [19] = assay: Antiviral activity against Influenza A virus A/WSN/33(H1N1) infected in chicken erythrocytes assessed as reduction in neuraminidase level incubated for 2 hrs; type: functional, organism-based; details: Erythrocyte
Influenza A virus [20] = assay: Antiviral activity against Influenza A virus A/WSN/33(H1N1) infected in MDCK cells MOI 0.1 assessed as reduction in viral titre at 100 uM pre-infected with cells for 6 hrs followed by compound addition and measured after 2 hrs post infection by time of addition assay; type: functional, organism-based
[21] = Inhibition of Influenza A virus A/WSN/33(H1N1) Ribonucleoprotein transfected in Vero cells incubated for 48 hrs by spectrophotometer analysis; type: cell-based
Influenza A virus [22] = assay: Antiviral activity against Influenza A virus B/Florida/4/06 infected in MDCK cells MOI 0.01 assessed as inhibition of viral growth pre-infected for 1 hr followed by compound addition and measured 24 hrs post infection by plaque assay; type: functional, organism-based; details: B/Florida/4/06, MDCK
Influenza A virus [23] = assay: Antiviral activity against Influenza A virus A/WSN/33(H1N1) infected in MDCK cells assessed as inhibition of viral growth pre-infected for 1 hr followed by compound addition and measured 24 hrs post infection by plaque assay; type: functional, organism-based
Influenza A virus [24] = assay: Antiviral activity against Influenza A virus A/WSN/33(H1N1) infected in MDCK cells MOI 0.1 assessed as reduction in viral titre at 100 uM pre-infected with cells for 6 hrs followed by compound addition and measured after 4 to 6 hrs post infection by time of addition assay; type: functional, organism-based
Influenza A virus [25] = assay: Antiviral activity against Influenza A virus A/WSN/33(H1N1) infected in MDCK cells assessed as reduction in virus-induced cytopathic effect at 25 uM pre-infected with cells for 1 hrs followed by compound addition and measured after 2 days by MTT assay; type: functional, organism-based; details: time 2.0 day

Cc1ccccc1N1CCN(C(=O)CNC(=O)c2ccccc2Nc2ccnc3ccc(Cl)cc23)CC1
inhibition at 12.5 µM (Influenza A virus [1]): 55.8%
CC50 at 48 h [2]: > 100 µM

O=C(CNC(=O)c1ccccc1Nc1ccnc2ccc(Cl)cc12)NCc1ccccc1
Activity (Influenza A virus [3]): Active
CC50 at 48 h [2]: > 100 µM

O=C(NC12CC3CC(CC(C3)C1)C2)c1ccccc1Nc1ccnc2ccc(Cl)cc12
Activity (MDCK): Toxic

O=C(CNC(=O)c1ccccc1Nc1ccnc2cc(C(F)(F)F)ccc12)NCCCN1CCOCC1
inhibition at 50 µM (Influenza A virus [4]): 94.9%
CC50 at 48 h [2]: > 50 µM

O=C(NCC(=O)N1CCN(c2cccc(Cl)c2Cl)CC1)c1ccccc1Nc1ccnc2ccc(Cl)cc12
inhibition at 12.5 µM (Influenza A virus [1]): 24%
CC50 at 48 h [2]: > 50 µM

O=C(O)c1ccccc1Nc1ccnc2ccc(Cl)cc12
inhibition at 50 µM (Influenza A virus [4]): 3.5%
CC50 at 48 h [2]: > 100 µM

O=C(NCC(=O)N1CCOCC1)c1ccccc1Nc1ccnc2ccc(Cl)cc12
inhibition at 100 µM (Influenza A virus [5]): 65.4%
CC50 at 48 h [2]: > 100 µM

NC(=O)c1ccccc1Nc1ccnc2cc(C(F)(F)F)ccc12
CC50 at 48 h [2]: > 100 µM

O=C(Nc1ccc(Br)cc1)c1ccccc1Nc1ccnc2cc(C(F)(F)F)ccc12
inhibition at 6.25 µM (Influenza A virus [6]): 74.5%
Activity (MDCK): Toxic

O=C(CNC(=O)c1ccccc1Nc1ccnc2cc(C(F)(F)F)ccc12)NCc1ccccc1
CC50 at 48 h [2]: > 100 µM

O=C(O)c1ccccc1Nc1ccnc2cc(C(F)(F)F)ccc12
selectivity ratio [7]: > 4
Activity (Influenza A virus [3]): Active
Activity (Influenza A virus [8]): inactive
CC50 at 48 h [9]: > 200 µM
selectivity ratio [10]: > 15
inhibition at 100 µM (Influenza A virus [5]): 97.3%
Activity (Influenza A virus [11]): inactive
IC50 (Influenza A virus [12]): 11.3 µM
selectivity ratio [13]: > 9
selectivity ratio [14]: > 10
selectivity ratio [15]: > 4
Activity (Influenza A virus [16]): Active
Kd (Nucleoprotein): 20.4 µM
IC50 (Influenza A virus [17]): 27.8 µM
Kd [18]: 8.36 µM
Activity (Influenza A virus [19]): inactive
Activity (Influenza A virus [20]): Active
CC50 at 48 h [2]: > 100 µM
IC50 [21]: 19.2 µM
IC50 (Influenza A virus [22]): 22.3 µM
IC50 (Influenza A virus [23]): 6.73 µM
Activity (Influenza A virus [24]): Active

COC(=O)c1ccccc1Nc1ccnc2cc(C(F)(F)F)ccc12
inhibition at 100 µM (Influenza A virus [5]): 17.9%
CC50 at 48 h [2]: > 100 µM

O=C(NCCCN1CCOCC1)c1ccccc1Nc1ccnc2cc(C(F)(F)F)ccc12
inhibition at 100 µM (Influenza A virus [5]): 99.9%
CC50 at 48 h [2]: > 100 µM

Cc1ccc(N2CCN(CCNC(=O)c3ccccc3Nc3ccnc4cc(C(F)(F)F)ccc34)CC2)c(C)c1
CC50 at 48 h [2]: > 100 µM

O=C(NCCCO)c1ccccc1Nc1ccnc2cc(C(F)(F)F)ccc12
inhibition at 100 µM (Influenza A virus [5]): 62.6%
CC50 at 48 h [2]: > 100 µM

O=C(NCCN1CCN(c2ccccc2OC(F)(F)F)CC1)c1ccccc1Nc1ccnc2cc(C(F)(F)F)ccc12
CC50 at 48 h [2]: > 100 µM

O=C(NCCN1CCN(c2ccccc2OC(F)(F)F)CC1)c1ccccc1Nc1ccnc2ccc(Cl)cc12
inhibition at 50 µM (Influenza A virus [4]): 50%
CC50 at 48 h [2]: > 100 µM

O=C(c1ccccc1Nc1ccnc2cc(C(F)(F)F)ccc12)N1CCOCC1
CC50 at 48 h [2]: > 100 µM

O=C(CNC(=O)c1ccccc1Nc1ccnc2ccc(Cl)cc12)NC1CCCCC1
inhibition at 12.5 µM (Influenza A virus [1]): 44.4%
CC50 at 48 h [2]: 21.6 µM

O=C(Nc1cccc([N+](=O)[O-])c1)c1ccccc1Nc1ccnc2cc(C(F)(F)F)ccc12
selectivity ratio [7]: > 8
Activity (Influenza A virus [8]): inactive
CC50 at 48 h [9]: > 100 µM
selectivity ratio [10]: > 18
inhibition at 100 µM (Influenza A virus [5]): 99.8%
Activity (Influenza A virus [11]): inactive
IC50 (Influenza A virus [12]): 5.5 µM
selectivity ratio [13]: > 18
selectivity ratio [14]: > 7
Activity (Influenza A virus [25]): Active
selectivity ratio [15]: > 12
Activity (Influenza A virus [16]): Active
IC50 (Influenza A virus [17]): 8.5 µM
Activity (Influenza A virus [19]): inactive
Activity (Influenza A virus [20]): Active
CC50 at 48 h [2]: > 100 µM
IC50 [21]: 14 µM
IC50 (Influenza A virus [22]): 12 µM
IC50 (Influenza A virus [23]): 5.53 µM
Activity (Influenza A virus [24]): Active

CCN(CC)CCCNC(=O)c1ccccc1Nc1ccnc2ccc(Cl)cc12
inhibition at 6.25 µM (Influenza A virus [6]): 15.3%
CC50 at 48 h [2]: 38 µM
